We go through two molecules from patent US20060165823A1, “Topical delivery agents and methods for making and using therm” (priority 2003, published 2006).

This series deals with hair follicles and sebaceous glands of the dorsal skin. The series can be described thus: Delivery of Nile Red fluorescent dye into hair follicles and sebaceous glands by delivery agents. The arrangement: species or system Sprague Dawley rat; Fluorescence intensity: key to the marks not given beside the values. As to conditions: rat, in vivo. From the text:
Mixtures of Nile Red fluorescent dye, were from Sigma Chemical Co., St. […] All mixtures were filtered through a 0.2 micron Millipore filter, available from Millipore Corp., Bedford, Mass., to remove any undissolved Nile Red dye. […] Before the application of formulations, the hair of the rats was gently clipped with an electric clipper on their dorsal areas. […] The amount of Nile Red delivered is evidenced by the intensity of the orange-red fluorescence depicted in the photomicrographs. […] Orange-red fluorescence due to Nile Red dye on the skin surface (stratum corneum) was not evaluated.

For the molecule `C[S+](C)[O-]` [DMSO, Dimethyl Sulfoxide, reference compound], the Fluorescence intensity entry is on record as “+++”. In the case of Jojoba Oil, the Fluorescence intensity result is on record as “++++”; the “Penetration of the skin and distribution in the pilosebaceous unit” value is “can penetrate the skin through the opening of the hair follicle and distribute itself throughout the hair shaft and sebaceous gland”.
